According to article PMC11971462, “Generation and validation of a novel multitarget small molecule in glioblastoma” (Cell Death & Disease, 2025):

Tested on: GNS166 cells
Assay: Label-free proteomics differential expression
Assay type: cell-based, human
Procedure: Proteomic studies were performed by the Proteomics Facility of the CIC bioGUNE by label-free relative quantification on nLC MS/MS. […] In both approaches, the top 20 enriched terms were plotted and the pathways were clustered using divisive hierarchical clustering based on pairwise Jaccard distances.

[1] = label-free proteomics, sheet DDI Prot

## C#CCN(Cc1cc2cc(OCCCN3CCCCC3)ccc2n1S(=O)(=O)c1ccccc1)C(=O)CCCCCCC(=O)NO [DDI]
[1]
  Direction of BIEA_HUMAN (P53004, GN=BLVRA) protein: Up
  Direction of CASP3_HUMAN (P42574, GN=CASP3) protein: Up
  Direction of COEA1_HUMAN (Q05707, GN=COL14A1) protein: Up
  Direction of GSH1_HUMAN (P48506, GN=GCLC) protein: Up
  Direction of LKHA4_HUMAN (P09960, GN=LTA4H) protein: Up
  Direction of NDUAC_HUMAN (Q9UI09, GN=NDUFA12) protein: Up
  Direction of PGPS1_HUMAN (Q32NB8, GN=PGS1) protein: Up
  Direction of PTSS1_HUMAN (P48651, GN=PTDSS1) protein: Up
  Direction of RETST_HUMAN (Q6NUM9, GN=RETSAT) protein: Up
  Direction of WDR47_HUMAN (O94967, GN=WDR47) protein: Up
  Direction of YIPF5_HUMAN (Q969M3, GN=YIPF5) protein: Up
label-free proteomics, sheet DDI Prot, p value 0.0469656
  LogFC of PGPS1_HUMAN (Q32NB8, GN=PGS1) protein: 1.405
label-free proteomics, sheet DDI Prot, p value 0.0475587
  LogFC of BIEA_HUMAN (P53004, GN=BLVRA) protein: 0.7997
label-free proteomics, sheet DDI Prot, p value 0.0480187
  LogFC of GSH1_HUMAN (P48506, GN=GCLC) protein: 1.55
label-free proteomics, sheet DDI Prot, p value 0.0482259
  LogFC of WDR47_HUMAN (O94967, GN=WDR47) protein: 1.18
label-free proteomics, sheet DDI Prot, p value 0.0482636
  LogFC of LKHA4_HUMAN (P09960, GN=LTA4H) protein: 0.5863
label-free proteomics, sheet DDI Prot, p value 0.0487326
  LogFC of CASP3_HUMAN (P42574, GN=CASP3) protein: 0.743
label-free proteomics, sheet DDI Prot, p value 0.049075
  LogFC of YIPF5_HUMAN (Q969M3, GN=YIPF5) protein: 0.5348
label-free proteomics, sheet DDI Prot, p value 0.0492119
  LogFC of NDUAC_HUMAN (Q9UI09, GN=NDUFA12) protein: 0.6479
label-free proteomics, sheet DDI Prot, p value 0.0493344
  LogFC of COEA1_HUMAN (Q05707, GN=COL14A1) protein: 0.8788
label-free proteomics, sheet DDI Prot, p value 0.049447
  LogFC of RETST_HUMAN (Q6NUM9, GN=RETSAT) protein: 0.7532
label-free proteomics, sheet DDI Prot, p value 0.0494892
  LogFC of PTSS1_HUMAN (P48651, GN=PTDSS1) protein: 0.7741
Protein A5YKK6
  Direction CNOT1_HUMAN: Down
  LogFC CNOT1_HUMAN: -0.5343
Protein A6NI47
  Direction POTEM_HUMAN: Down
  LogFC POTEM_HUMAN: -1.6004
Protein O00154 GN=ACOT7
  LogFC BACH_HUMAN: 0.4908
Protein O00186 GN=STXBP3
  LogFC STXB3_HUMAN: -0.9203
Protein O00443
  Direction P3C2A_HUMAN: Down
  LogFC P3C2A_HUMAN: -0.6873
Protein O00560 GN=SDCBP
  LogFC SDCB1_HUMAN: 2.446
Protein O00571
  Direction DDX3X_HUMAN: Down
  LogFC DDX3X_HUMAN: -0.4203
Protein O00767 GN=SCD
  LogFC ACOD_HUMAN: 1.2881
Protein O14497
  Direction ARI1A_HUMAN: Down
  LogFC ARI1A_HUMAN: -1.314
Protein O14656 GN=TOR1A
  LogFC TOR1A_HUMAN: -0.6936
Protein O14744
  Direction ANM5_HUMAN: Down
  LogFC ANM5_HUMAN: -0.2326
Protein O14757
  Direction CHK1_HUMAN: Down
  LogFC CHK1_HUMAN: -0.9245
Protein O14908 GN=GIPC1
  LogFC GIPC1_HUMAN: 1.5016
Protein O14965
  Direction AURKA_HUMAN: Down
  LogFC AURKA_HUMAN: -3.358
Protein O15121
  Direction DEGS1_HUMAN: Down
  LogFC DEGS1_HUMAN: -0.1717
Protein O15173 GN=PGRMC2
  LogFC PGRC2_HUMAN: 0.7586
Protein O15254 GN=ACOX3
  LogFC ACOX3_HUMAN: 1.235
Protein O15294
  Direction OGT1_HUMAN: Down
  LogFC OGT1_HUMAN: -0.4734
Protein O15321
  Direction TM9S1_HUMAN: Down
  LogFC TM9S1_HUMAN: -2.186
Protein O15344 GN=MID1
  LogFC TRI18_HUMAN: 0.3983
Protein O15357
  Direction SHIP2_HUMAN: Down
  LogFC SHIP2_HUMAN: -1.6838
Protein O15360
  Direction FANCA_HUMAN: Down
  LogFC FANCA_HUMAN: -1.214
Protein O15427 GN=SLC16A3
  LogFC MOT4_HUMAN: 1.9
Protein O15439
  Direction MRP4_HUMAN: Down
  LogFC MRP4_HUMAN: -0.8149
Protein O15533 GN=TAPBP
  LogFC TPSN_HUMAN: -0.5526
Protein O43242 GN=PSMD3
  LogFC PSMD3_HUMAN: -0.4067
Protein O43252 GN=PAPSS1
  LogFC PAPS1_HUMAN: 0.7138
Protein O43314
  Direction VIP2_HUMAN: Down
  LogFC VIP2_HUMAN: -0.766
Protein O43615 GN=TIMM44
  LogFC TIM44_HUMAN: -0.5983
Protein O43709
  Direction BUD23_HUMAN: Down
  LogFC BUD23_HUMAN: -2.307
Protein O43823
  Direction AKAP8_HUMAN: Down
  LogFC AKAP8_HUMAN: -2.082
Protein O43824
  Direction GTPB6_HUMAN: Down
  LogFC GTPB6_HUMAN: -1.261
Protein O60333
  Direction KIF1B_HUMAN: Down
  LogFC KIF1B_HUMAN: -2
Protein O60462 GN=NRP2
  LogFC NRP2_HUMAN: -0.6899
Protein O60502 GN=OGA
  LogFC OGA_HUMAN: 0.8005
Protein O60518 GN=RANBP6
  LogFC RNBP6_HUMAN: 1.52
Protein O75131 GN=CPNE3
  LogFC CPNE3_HUMAN: 0.4901
Protein O75146 GN=HIP1R
  LogFC HIP1R_HUMAN: 2.1312
Protein O75153
  Direction CLU_HUMAN: Down
  LogFC CLU_HUMAN: -0.6987
Protein O75352
  Direction MPU1_HUMAN: Down
  LogFC MPU1_HUMAN: -0.8716
Protein O75354
  Direction ENTP6_HUMAN: Down
  LogFC ENTP6_HUMAN: -1.463
Protein O75431 GN=MTX2
  LogFC MTX2_HUMAN: -0.4239
Protein O75691
  Direction UTP20_HUMAN: Down
  LogFC UTP20_HUMAN: -1.068
Protein O75937
  Direction DNJC8_HUMAN: Down
  LogFC DNJC8_HUMAN: -0.4544
Protein O75954
  Direction TSN9_HUMAN: Down
  LogFC TSN9_HUMAN: -3.176
Protein O76094 GN=SRP72
  LogFC SRP72_HUMAN: -0.4411
Protein O94829 GN=IPO13
  LogFC IPO13_HUMAN: 1.054
Protein O94854 GN=KIAA0754
  LogFC K0754_HUMAN: -2.89
Protein O94925 GN=GLS
  LogFC GLSK_HUMAN: 1.0422
Protein O94964
  Direction SOGA1_HUMAN: Down
  LogFC SOGA1_HUMAN: -1.709
Protein O95071
  Direction UBR5_HUMAN: Down
  LogFC UBR5_HUMAN: -1.078
Protein O95166 GN=GABARAP
  LogFC GBRAP_HUMAN: 0.6601
Protein O95239
  Direction KIF4A_HUMAN: Down
  LogFC KIF4A_HUMAN: -2.337
Protein O95249
  Direction GOSR1_HUMAN: Down
  LogFC GOSR1_HUMAN: -1.68
Protein O95251
  Direction KAT7_HUMAN: Down
  LogFC KAT7_HUMAN: -3.074
Protein O95347
  Direction SMC2_HUMAN: Down
  LogFC SMC2_HUMAN: -0.9053
Protein O95363 GN=FARS2
  LogFC SYFM_HUMAN: -0.6412
Protein O95479 GN=H6PD
  LogFC G6PE_HUMAN: -1.176
Protein O95573 GN=ACSL3
  LogFC ACSL3_HUMAN: 1.019
Protein O95671 GN=ASMTL
  LogFC ASML_HUMAN: 3.03
Protein O95793
  Direction STAU1_HUMAN: Down
